Experimental data: the METLIN SMRT retention time set (Domingo-Almenara et al. 2019)

Experiment: gradient 5% acetonitrile 3 min, to 50% in 2 min, to 85% in 15 min, held 3 min, 100 µL/min
Details: column: Zorbax Extend-C18 2.1 x 50 mm; eluents: water / acetonitrile, 0.1% formic acid
How it was run: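 The system's dead and dwell volumes were 40 μL and 900 μL, with a Zorbax Extend-C18 column (2.1 × 50 mm, 1.8 μm) run at 100 μL/min in water and acetonitrile containing 0.1% formic acid each. Pure standards were analyzed in mixtures of ~100 molecules by HPLC–quadrupole time-of-flight mass spectrometry in positive and negative ionization mode. Retention time was assigned from computationally picked, manually inspected adduct peaks.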

## Cc1cccc(Oc2cc(N3CCC(C(=O)NCCC4=CCCCC4)CC3)ncn2)c1C
  RP-LC retention time: 1110 s

## COc1ccc(OC)c(NC(=O)CSC2CCc3ccccc3NC2=O)c1 (centres undefined)
  RP-LC retention time: 797 s

## Cc1ccc(N2CC(C(=O)Nc3cc(-c4nc(C)cs4)sc3C)CC2=O)cc1 (centres undefined)
  RP-LC retention time: 848 s

## CCc1cccc(NC(=O)c2cc(C)n3nccc3n2)c1
  RP-LC retention time: 1030 s

## O=C(Cc1ccc(F)cc1)Nc1ccccc1NC(=O)c1cccc(Cl)c1
  RP-LC retention time: 897 s

## Cc1noc(C)c1CCNC(=O)c1ccc2nc(Cc3ccccc3)oc2c1
  RP-LC retention time: 830 s

## O=c1cc(-c2ccccc2)c2c(O)cc(O)cc2o1
  RP-LC retention time: 721 s

## CCc1cccc(NS(=O)(=O)c2ccc3c(c2)CCCC(=O)N3)c1
  RP-LC retention time: 780 s

## COc1ccc(NS(=O)(=O)c2cc(-c3cc(C(F)(F)F)[nH]n3)sc2C)cc1Cl
  RP-LC retention time: 995 s

## CC1CC(=O)Nc2cc(S(=O)(=O)N3CCN(c4ccccn4)CC3)ccc2S1 (centres undefined)
  RP-LC retention time: 646 s

## CCCN(CCC)C(=O)C1CCCN(c2ccc(-c3ccc(C)cc3)nn2)C1 (centres undefined)
  RP-LC retention time: 826 s

## CCN(Cc1cnn(CC)c1)C(=O)C1CN(C(=O)c2ccccc2)CC12CCCCC2 (centres undefined)
  RP-LC retention time: 812 s

## O=C(O)c1nnn(-c2ccc3c(c2)OCCO3)c1-c1cccnc1
  RP-LC retention time: 568 s

## O=C(Nc1nc(-c2ccccc2)cs1)NC1CCCCC1
  RP-LC retention time: 991 s

## Cn1nc(C(=O)N2C[C@@H]3C[C@H](NC(=O)c4cccs4)[C@H]2C3)c2ccccc21
  RP-LC retention time: 778 s

## Cc1nc(-c2ccc(OC3CCN(C(=O)c4nn(C)c5ccccc45)C3)cc2)no1 (centres undefined)
  RP-LC retention time: 942 s

## O=C(NCCc1c[nH]c2ccc(Cl)cc12)c1cncc(Br)c1
  RP-LC retention time: 851 s

## CC(C)CN1C(=O)c2cccn2CC1C(=O)NCc1ccc2c(c1)OCO2 (centres undefined)
  RP-LC retention time: 676 s

## Fc1ccc(-c2nc(-c3cccc(-c4ccn[nH]4)c3)no2)c(F)c1
  RP-LC retention time: 992 s

## CCN1C(=O)Cc2cc(C(=O)N3CCN(c4ccccc4F)CC3)ccc21
  RP-LC retention time: 848 s

## CCc1nnc(NC(=O)Cc2csc(-n3cccc3)n2)s1
  RP-LC retention time: 701 s

## CC(NC(=O)c1ccccc1)c1nc(-c2ccc(NS(C)(=O)=O)cc2)no1 (centres undefined)
  RP-LC retention time: 766 s

## COCCc1noc(-c2ccccc2OC2CNC2)n1
  RP-LC retention time: 590 s

## CCc1cccc(C)c1Nc1c(-c2ccc(N3CCOCC3)cc2)nc2cnccn12
  RP-LC retention time: 817 s

## CCn1cc(CN2CCCC(Cn3cc(COC)nn3)C2)c2cc(OC)ccc21 (centres undefined)
  RP-LC retention time: 637 s

## c1cc2c(cc1-c1noc(C3CCC3)n1)ncn2CCN1CCCC1
  RP-LC retention time: 596 s

## COCCN1CCC(CNS(=O)(=O)c2ccc(F)cc2C)CC1
  RP-LC retention time: 566 s

## Cc1ccccc1OCc1nc(-c2cccc(-c3ccn[nH]3)c2)no1
  RP-LC retention time: 1020 s

## Cc1nc(-c2noc(-c3ccccc3)n2)cn1CC(=O)NCc1ccc(Cl)cc1
  RP-LC retention time: 866 s

## COc1ccc(CC(=O)Nc2nnc(SCc3ccccc3F)s2)cc1OC
  RP-LC retention time: 824 s

## COc1ccc(N2CCN(c3cc(SCC(=O)Nc4cc(OC)ccc4OC)ncn3)CC2)cc1
  RP-LC retention time: 1030 s

## Cc1nc2cc(-c3noc(CCc4c[nH]c5ccccc45)n3)ccc2o1
  RP-LC retention time: 1020 s

## CCCCN(C)C(=O)CCC1CCCN(c2cc(NCC)ncn2)C1 (centres undefined)
  RP-LC retention time: 658 s

## CCC1Oc2ccc(S(=O)(=O)N3CCC(C(=O)NCc4cccc(C)c4)CC3)cc2NC1=O (centres undefined)
  RP-LC retention time: 893 s

## CCS(=O)(=O)N1CC(=O)N(c2ccccc2C)C(C)(C(=O)NC2CCCCCCC2)C1 (centres undefined)
  RP-LC retention time: 951 s

## CCn1cccc1-c1nc(-c2ccncc2)no1
  RP-LC retention time: 833 s

## COc1cccc(CN2CCC3(CC2)NCCc2c3[nH]c3ccc(OC)cc23)c1
  RP-LC retention time: 589 s

## Cc1ccc(Nc2c(-c3ccccc3)nc3cc(C)ccn23)cc1
  RP-LC retention time: 741 s

## O=C(/C=C\c1ccccc1)Nc1ccc(-c2cn3cccnc3n2)cc1
  RP-LC retention time: 683 s

## CCCc1nnc(-c2cccnc2N2CCN(C(=O)c3ccoc3)CC2)o1
  RP-LC retention time: 728 s

## CCC(CC)NC(=O)C1CC(=O)N(CCc2c[nH]c3ccc(Cl)cc23)C1 (centres undefined)
  RP-LC retention time: 796 s

## Cc1cccc(CCNC(=O)Cc2csc3nc(-c4ccccc4)cn23)c1
  RP-LC retention time: 810 s

## COC(=O)c1cc2c(=O)n(Cc3ccccn3)ccc2nc1C
  RP-LC retention time: 638 s

## O=C(NC1CCN(c2cc(-c3ccc(F)cc3)[nH]n2)C1)c1ccccc1Cl (centres undefined)
  RP-LC retention time: 721 s

## O=C(NCc1ccc2c(c1)OCO2)c1c(O)c2cccnc2n(-c2ccccc2)c1=O
  RP-LC retention time: 1120 s

## Clc1cccc(-c2nc(-c3cccc(-c4ccn[nH]4)c3)no2)c1
  RP-LC retention time: 1120 s

## O=C(NCc1csc(C2CCCN(C(=O)c3cc(F)ccc3Cl)C2)n1)C1CC1 (centres undefined)
  RP-LC retention time: 750 s

## CCOC(=O)c1oc2ccc(S(=O)(=O)NCC3Cn4cccc4C(=O)N3C)cc2c1C (centres undefined)
  RP-LC retention time: 810 s

## O=C(NC1CC1)c1ccc(OCC2CCCN(C(=O)c3ccoc3)C2)cc1 (centres undefined)
  RP-LC retention time: 712 s

## Cc1sc2cc(C(=O)N3CCN(c4ccccn4)CC3)[nH]c2c1CN1CCCC1
  RP-LC retention time: 558 s

## COCCCNC(=O)c1ccc2c(c1)nc1n2CCN(C2CCCCC2)C1=O
  RP-LC retention time: 1240 s

## Cc1cc(SCC(=O)N2CCCc3ccccc32)nc(C)n1
  RP-LC retention time: 722 s

## O=c1oc(-c2ccccc2)c(-c2ccccc2)c2ccccc12
  RP-LC retention time: 1030 s

## COc1ccc(C(=O)N2CCC3(C2)C(=O)N(C)c2ccccc23)cc1OC (centres undefined)
  RP-LC retention time: 714 s

## CC(C)C1c2nccn2CCCN1C(=O)Cn1c(=O)oc2ccccc21 (centres undefined)
  RP-LC retention time: 603 s

## Cc1ccccc1CNC(=O)C1(C)CCCN(C(=O)Nc2ccccc2Cl)C1 (centres undefined)
  RP-LC retention time: 1010 s

## COc1ccccc1NC(=O)N1CCC2(CC1)N=C(c1ccc(Cl)cc1)C(=O)N2
  RP-LC retention time: 884 s

## CCCCNC(=O)c1ccccc1NC(=O)C1CCN(C(=O)C(C)(C)C)CC1
  RP-LC retention time: 874 s

## O=C(NCc1ccncc1)C1CCCN(c2ccc(Sc3ccc(Br)cc3)nn2)C1 (centres undefined)
  RP-LC retention time: 653 s
